Source: patent US9801922B2, “Compositions and methods of treating cancer” (UNIVERSITY OF IOWA RESEARCH FOUNDATION, priority 2011, dated 2017)

Key:
[1] = test system: Human thioredoxin-1 (hTrx-1); assay: Thioredoxin native redox western blot; format: cell-based; conditions: SUM159
Protocol: FIG. 7: Human thioredoxin-1 (hTrx-1) native redox western blot analysis of BSO, DTPP and AUR treated SUM159. Asynchronously growing cultures of SUM159 were plated and treated as described in FIG. 1. Cells were harvested and scraped in PBS at 4° C. Whole cell homogenates were used for native gel redox western blot analysis of […].
Thioredoxin Redox Western: The human thioredoxin-1 protein level was determined by Thioredoxin redox western. Approximately 2-3 million treated or untreated SUM159 cells were lysed in G-lysis buffer (50 mM Tris-HCl, pH 8.3, 3 mM EDTA, 6 M guanidine-HCl, 0.5% Triton X-100) containing 50 mM iodoacetic acid (pH 8.3). The lysate was incubated in the dark for thirty minutes. The lysates were then centrifuged in G-25 microspin columns (GE Healthcare). Protein was then quantified, from the eluent by performing a Bradford protein assay, as previously described (Bradford, M. M. A rapid and sensitive method for the quantitation of microgram quantities of protein utilizing the principle of protein-dye binding. Anal Biochem 72:248-254; 1976). Equal amounts of protein were then added to a 15% acrylamide native gel. The gel was then run at 100 V for approximately 1.5 h. The proteins contained in the gel were then transferred to a nitrocellulose membrane (BIORAD Labs), using a semi-dry transfer protocol. The nitrocellose membrane was then washed in PBST (Phosphate buffered saline with 0.1% Tween) before being incubated at 4 overnight with the primary antibody, 1:1000 goat anti-hTrx-1 (American Diagnostica, Inc.) in PBST with 2% BSA. […]

[2] = test system: SUM159 human breast cancer cells; assay: Clonogenic cell survival, SUM159; format: cell-based; conditions: for cytotoxicity (clonogenic survival), in words: 500 nM AUR 15 min
Protocol: FIGS. 1A-D: BSO, DTPP and AUR treated SUM159, MDA-MB231 and HMEC Clonogenic survival. In Panel A (SUM 159), B (MDA-MB231) and C(HMEC), 150,000 cells/dish SUM159 or MDA-MB231 and 300,000 cells/dish were plated in 60 mm tissue culture dishes. After 48 hours, cells were given fresh complete HMECs media and treated with 100 μM BSO+/1 μM DTPP for 24 hours. 500 nM AUR were added 15 mins before the trypsinization of cells for clonogenic survival assay. In panel A-C, The error bars represent mean±1 SD of n=1 treatment dishes done in 3 separate experiments where each treatment dish was used to prepare 6-10 replicate cloning dishes for analysis. *p<0.001 as compared to Control. […] Mice growing Sum159 xenograft tumors were treated with 100 μM DTPP in drinking water for 2 weeks followed by i.p. injections of BSO 675 mg/kg followed in 2 hrs with Au 2.7 mg/kg. The day following injections tumors were harvested, digested and stained for ALDH positive cells. Each bar represents an average of at least three tumors. Error bars are SEM. *p<0.05 vs. control.
FIG. 2: BSO and AUR treated SUM159 dose response Clonogenic survival. 150,000 cells/dish SUM159 were plated in 60 mm tissue culture dishes. After 48 hours, cells were given fresh complete HMECs media and treated with 100 μM BSO 24 hours. 500 nM AUR were added 15 mins, 30 mins, 45 mins, 1 hr, 1.5 hrs and 3 hrs before the trypsinization. Cells were then collected and plated for clonogenic survival. In panel A-C, The error bars represent mean±1 SD of n=1 treatment dishes done in 3 separate experiments where each treatment dish was used to prepare 6-10 replicate cloning dishes for analysis. *p<0.001 as compared to SUM159 Control. ^p<0.001 as compared to HMEC Control.
FIGS. 3A-3B: Clonogenic survival of SUM159 and MDA-MB231 cells treated with BSO, DTPP and AUR in the presence of 20 mM NAC. Asynchronously growing cultures of SUM159 (panel A) and MDA-MB231 (panel B) were plated as described in FIG. 1. After 48 hours, cells were given fresh complete HMECs media and treated with 100 μM BSO+/1 μM DTPP in the presence or absence of 20 mM NAC for 24 hours. 500 nM AUR were added 15 mins before the trypsinization. cells were then collected and plated for clonogenic survival. In panel A, B, The error bars represent mean±1SD of n=1 treatment dishes done in 3 separate experiments where each treatment dish was used to prepare 6-10 replicate cloning dishes for analysis. *p<0.001 as compared to W/O NAC Control. ^p<0.001 as compared to W/NAC Control.
FIG. 6: BSO, DTPP and AUR treated SUM159 in the presence of 100 U/ml PEGSOD+/PEGCAT Clonogenic survival. Asynchronously growing cultures of SUM159 were plated as described in FIG. 1. After 48 hours, cells were given fresh complete HMECs media and treated with 100 μM BSO+/1 μM DTPP in the presence or absence of PEGSOD+/PEGCAT (100 U/mL each) for 24 hours. Control received PEG alone (18 μM) for 24 hours. 500 nM AUR were added 15 mins before the trypsinization. Cells were then collected and plated for clonogenic survival. In panel A, B, The error bars represent mean±1 SD of n=1 treatment dishes done in 3 separate experiments where each treatment dish was used to prepare 6-10 replicate cloning dishes for analysis. *p<0.001 as compared to PEG alone Control. ^p<0.001 as compared to PEGCAT Control, $ p<0.001 as compared to PEGSOD+CAT Control.
Clonogenic cell survival: To determine whether the DTPP exposure alters the cell proliferation in MDA-MB231, SUM159 and HMECs, 150,000 cells/dish of MDA-MB231 and SUM159 cells, and 300,000 cells/dish HMECs were plated in 60 mm tissue culture dishes. After 48 hours, at 24 hours prior to each clonogenic survival experiment, media in all the dishes were changed to HMECs media and then treated with 100 μM BSO and 1 μM DTPP for 24 h. Cells were treated with AUR for 15 minutes prior to each clonogenic survival experiment. […]

Compound | increase of ratio of oxidized thioredoxin to total thioredoxin compared to control [1] | increase of the ratio of oxidized Trx-1 to reduced Trx-1 ([1]; 15 min AUR) | cytotoxicity (clonogenic survival), in words ([2]; 100 μM BSO, 1 μM DTPP 24 h) | ratio of oxidized thioredoxin to total thioredoxin, in words [1] | survival fraction (of control cells) in the presence of NAC ([2]; 1 μM DTPP with 20 mM NAC, 24 hrs) | decrease in cell survival / survival fraction compared to control ([2]; 100 μM BSO and/or 1 μM DTPP for 24 hours) | clonogenic cell killing ([2]; 100 μM BSO, 1 μM DTPP 24 h, 500 nM AUR 15 min (FIG. 1A)) | clonogenic survival without PEGSOD+PEGCAT ([2]; PEG alone control) | clonogenic survival with PEGSOD+PEGCAT ([2]; PEGSOD+PEGCAT 100 U/ml each)
CC[PH](CC)(CC)[Au][S][C@@H]1O[C@H](COC(C)=O)[C@@H](OC(C)=O)[C@H](OC(C)=O)[C@H]1OC(C)=O [AUR, S-triethylphosphinegold(I)-2,3,4,6-tetra-O-acetyl-1-thio-β-D-glucopyranoside] | around 2 fold | 2 fold | did not cause any significant cytotoxicity |  |  |  |  |  | 
CCCCS(=N)(=O)CCC(N)C(=O)O [BSO, L-buthionine-[S,R]-sulfoximine, reference compound] |  |  | did not cause significantly cytotoxicity | no ratio change |  |  |  |  | 
CCCCCCCCCC[P+](c1ccccc1)(c1ccccc1)c1ccccc1 [DTPP, Decyl-Triphenylphosphonium] |  |  |  |  | at least 70% | 70%-80% | at least 70% | 35% | 70%
